Results on 24 molecules are retold here after patent publication US5436246A, “Serotonin receptor agents” (priority 1993, dated 1995).

For test [1], the target named is T1, 5HT1A receptor (Rattus norvegicus, UniProt P19327).
T1 sequence (P19327 1-422): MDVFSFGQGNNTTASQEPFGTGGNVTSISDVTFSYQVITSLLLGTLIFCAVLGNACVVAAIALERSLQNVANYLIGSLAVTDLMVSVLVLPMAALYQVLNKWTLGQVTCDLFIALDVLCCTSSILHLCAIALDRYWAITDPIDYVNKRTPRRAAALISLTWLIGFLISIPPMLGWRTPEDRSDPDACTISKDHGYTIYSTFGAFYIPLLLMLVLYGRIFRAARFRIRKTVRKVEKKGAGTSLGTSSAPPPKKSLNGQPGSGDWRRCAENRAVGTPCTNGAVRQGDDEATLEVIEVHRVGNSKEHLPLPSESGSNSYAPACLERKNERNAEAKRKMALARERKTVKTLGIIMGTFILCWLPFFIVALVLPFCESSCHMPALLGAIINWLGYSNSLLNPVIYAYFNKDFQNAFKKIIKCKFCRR
Kind of test: 5HT1A receptor binding affinity (procedure of Gozlan et al.). The protocol:
In the following examples, the compounds binding affinity for both the 5HT1A receptor and 5HT1D receptors is reported. The compounds affinity for the 5HT1D site was determined by the binding procedure of Peroutka et al as reported in European Journal of Pharmacology, Vol. 163 at pages 133-166 (1989). The compounds affinity for the 5HT1A receptor was determined by the procedure of Gozlan et al., as reported in Nature, Volume 305, at pages 140-142 (1983). Where multiple determinations of the binding affinity have been performed, the average is given followed by the number of determinations in parentheses. Also, the PA2 value for the saphenous vein preparation as described in this application is given, followed by the intrinsic (agonist) activity in parentheses, expressed as a percentage. [drawing 10] […]

In test [2] the target is T2, 5HT1D receptor (Bos taurus, UniProt F1MGM3).
T2 construct: from tissue
The experiment in a line: 5HT1D receptor binding affinity (procedure of Peroutka et al.).
Protocol: The compounds affinity for the 5HT1D site was determined by the binding procedure of Peroutka et al as reported in European Journal of Pharmacology, Vol. 163 at pages 133-166 (1989). […] Where multiple determinations of the binding affinity have been performed, the average is given followed by the number of determinations in parentheses.

[3] abbreviates: average of multiple determinations where number in parentheses is given, read-out: IC50 (5HT1A Binding Affinity).
Setting [4] is: average of multiple determinations where number in parentheses is given, read-out: IC50 (5HT1D Binding Affinity).

Where a name gives a salt, the structure may show the parent alone. Read-outs that look alike come from different tables or passages of the source.

T2 sequence (F1MGM3 1-403): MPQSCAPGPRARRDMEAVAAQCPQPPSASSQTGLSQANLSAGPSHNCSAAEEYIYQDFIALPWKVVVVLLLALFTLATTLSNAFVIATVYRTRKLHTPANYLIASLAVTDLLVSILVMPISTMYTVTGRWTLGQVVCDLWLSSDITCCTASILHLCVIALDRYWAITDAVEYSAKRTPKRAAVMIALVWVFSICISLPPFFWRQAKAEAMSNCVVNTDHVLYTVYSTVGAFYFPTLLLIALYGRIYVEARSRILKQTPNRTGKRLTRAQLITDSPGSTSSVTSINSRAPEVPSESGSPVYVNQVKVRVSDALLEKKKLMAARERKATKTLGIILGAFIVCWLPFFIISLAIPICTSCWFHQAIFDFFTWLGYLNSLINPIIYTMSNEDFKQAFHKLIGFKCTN

As to `CCOC(=O)c1cc2c(N3CCN(Cc4ccccc4)CC3)cccc2s1` [Example 1, ethyl-4-[4-(phenylmethyl)-1-piperazinyl]benzo[b]thiophene-2-carboxylate monohydrochloride], the half-inhibitory concentration (IC50) in test [1] (setting [3]) and in test [2] (setting [4]) was over 1000 nM each time.

Regarding `OCc1cc2c(N3CCN(Cc4ccccc4)CC3)cccc2s1` [Example 2, 4-[4-(phenylmethyl)-1-piperazinyl]-benzo[b]thiophene-2-methanol monohydrochloride], the IC50 – broadly, the point on the concentration scale where inhibition reaches its midpoint – in test [1] (setting [3]) was determined as 35 nM; in test [2] (setting [4]) it was 760 nM. For `N#Cc1cc2c(N3CCN(Cc4ccccc4)CC3)cccc2s1` [Example 3, 4-[4-(phenylmethyl)-1-piperazinyl]-benzo[b]thiophene-2-nitrile monohydrochloride] the same measures were 180 nM and over 1000 nM.

`NC(=O)c1cc2c(N3CCN(Cc4ccccc4)CC3)cccc2s1` [Example 4, 4-[4-(phenylmethyl)-1-piperazinyl]-benzo[b]thiophene-2-carboxamide monohydrochloride]: the IC50 in test [1] (setting [3]) turned out to be 1.6 nM; in test [2] (setting [4]), 52 nM.

In the case of `CCOC(=O)c1cc2c(N3CCNCC3)cccc2s1` [Example 5, ethyl 4-(1-piperazinyl)-benzo[b]thiophene-2-carboxylate monohydrochloride], the IC50 worked out at 89 nM in test [1] and 47 nM in test [2]. As for `CCOC(=O)c1cc2c(N3CCN(CCc4ccccc4)CC3)cccc2s1` [Example 6, ethyl-4-[4-(2-phenylethyl)-1-piperazinyl]-benzo[b]thiophene-2-carboxylate monohydrochloride], the results for the 50% inhibitory concentration (IC50) in test [1] (setting [3]) and in test [2] (setting [4]) were 37 nM and 108 nM, respectively. Regarding `N#Cc1cc2c(N3CCN(CCc4ccccc4)CC3)cccc2s1` [Example 8, 4-[4-(2-phenylethy-1-piperazinyl]-benzo[b]thiophene-2-nitrilemonohydrochloride], the half-maximal inhibitory concentration (IC50) in test [1] is 4 nM; in test [2] it was 18 nM. As to `CCOC(=O)c1cc2c(N3CCN(CCCc4ccccc4)CC3)cccc2s1` [Example 14, ethyl-4-[4-(3-phenylpropyl)-1-piperazinyl]-benzo[b]thiophene-2-carboxylatemonohydrochloride], the values for the IC50 in test [1] (setting [3]) and in test [2] (setting [4]) were 239 nM and 551 nM, respectively.

Turning to `N#Cc1cc2c(N3CCN(CCCc4ccccc4)CC3)cccc2s1` [Example 16, 4-[4-(3-phenylpropyl)-1-piperazinyl]-benzo[b]thiophene-2-nitrile monohydrochloride], the IC50 was determined as 21 nM in test [1] (setting [3]) and 173 nM in test [2] (setting [4]). In the case of `OCc1cc2c(N3CCN(CCc4ccc(Cl)cc4)CC3)cccc2s1` [Example 19, 4-[4-[2-(4-chlorophenyl)ethyl]-1-piperazinyl]-benzo[b]thiophene-2-methanolmonohydrochloride], the IC50 in test [1] stood at 2 nM; in test [2] it was 10 nM. Turning to `OCc1cc2c(N3CCN(CCc4ccc(F)cc4)CC3)cccc2s1` [Example 23, 4-[4-[2-(4-fluorophenyl)ethyl]-1-piperazinyl]-benzo[b]thiophene-2-methanolmonohydrochloride], the 50% inhibitory concentration (IC50) in test [1] and in test [2] was 3 nM throughout. For the molecule `NC(=O)c1cc2c(N3CCN(CCc4ccc(F)cc4)CC3)cccc2s1` [Example 25, 4-[4-[2-(4-fluorophenyl)ethyl]-piperazinyl]-benzo[b]-thiophene-2-carboxamide monohydrochloride], the IC50 turned out to be 0.8 nM in test [1] and 6 nM in test [2]. For `Cc1ccc(CCN2CCN(c3cccc4sc(CO)cc34)CC2)cc1` [Example 27, 4-[4-[2-(4-methylphenyl)-ethyl]-1-piperazinyl]-benzo[b]thiophene-2-methanol monohydrochloride] the same measures were 3 nM and 1 nM. In the case of `Cc1ccc(CCN2CCN(c3cccc4sc(C#N)cc34)CC2)cc1` [Example 28, 4-[4-[2-(4-methylphenyl)ethyl]-1-piperazinyl]-benzo[b]thiophene-2-nitrile monohydrochloride], the IC50 came out at 4 nM in test [1] and 56 nM in test [2]. With `CCOC(=O)c1cc2c(N3CCN(CCc4ccc(OC)cc4)CC3)cccc2s1` [Example 30, ethyl-4-[4-[2-(4-methoxyphenyl)ethyl]-1-pierazinyl]-benzo-[b]thiophene-2-carboxylate monohydrochloride], the IC50 in test [1] (setting [3]) was 74 nM; in test [2] (setting [4]), 73 nM. Consider `COc1ccc(CCN2CCN(c3cccc4sc(CO)cc34)CC2)cc1` [Example 31, 4-[4-[2-(4-methoxyphenyl)ethyl]-1-piperazinyl]-benzo[b]thiophene-2-methanol monohydrochloride], for which the IC50 stood at 1 nM in test [1] and 2 nM in test [2]. On to `Cc1c(CO)sc2cccc(N3CCN(CCc4ccccc4)CC3)c12` [Example 33, 4-[4-(2,phenylethyl)-1-piperazinyl]-benzo[b]-thiophene-3-methyl-2-methanol monhydrochloride 0.5 hydrate], for which the figures for the IC50 in test [1] and in test [2] were 9 nM and 31 nM, respectively. For `CCCN1CCN(c2cccc3sc(CO)cc23)CC1` [Example 35, 4-[(4-propyl)-1-piperazinyl]benzo[b]thiophene-2-methanol hydrochloride], the IC50 worked out at 34 nM in test [1] (setting [3]) and 66 nM in test [2] (setting [4]). On to `CN1CCN(c2cccc3sc(CO)cc23)CC1` [Example 39, 4-[4-methyl-1-piperazinyl]-benzo[b]thiophene-2-methanol hydrochloride], for which the concentration for half-maximal inhibition (IC50) in test [2] was found to be 16 nM. For `CC(O)c1cc2c(N3CCN(CCc4ccccc4)CC3)cccc2s1` (stereo not drawn) [Example 43, 1-[4-(4-phenethyl-piperazin-1-yl)-benzo[b]thiophen-2-yl]ethanol hydrochloride], the 50% inhibitory concentration (IC50) in test [1] stood at 0.5 nM; in test [2], 3 nM.

In test [2], `COCc1cc2c(N3CCNCC3)cccc2s1` [Example 45, 4-(1-piperazinyl)-benzo[b]thiophene-2-methoxymethyl hydrochloride hemihydrate] returned a 50% inhibitory concentration (IC50) of 4 nM. Still for that read-out and setting: under `CNC(=O)c1cc2c(N3CCNCC3)cccc2s1` [Example 49, 4-(1-piperazinyl)benzol[b]-thiophene-2-(N-methyl)carboxamide dihydrochloride hydrate] stands 8.4 nM. Consider `O=[N+]([O-])c1ccc(CCN2CCN(c3cccc4sc(CO)cc34)CC2)cc1` [Example 50, 4-[4-[2-(4-nitrophenyl)ethyl]-1-piperazinyl]-benzo[b]thiophene-2-methanol hydrochloride], for which the concentration for half-maximal inhibition (IC50) in test [1] (setting [3]) worked out at 1 nM; in test [2] (setting [4]), 6 nM. Regarding `NCc1cc2c(N3CCN(CCc4ccccc4)CC3)cccc2s1` [Example 55, 4-[4-(2-phenylethyl)-1-piperazinyl]-benzo[b]thiophene-2-methanamine dihydrochloride], the figures for the half-maximal inhibitory concentration (IC50) in test [1] and in test [2] were 3 nM and 12 nM, respectively.
